The values below come from ChEMBL document CHEMBL1151930, “Physicochemical determinants of human renal clearance” (J Med Chem, 2009).

Structures are written as SMILES.

This data set is described as follows: clinical. The settings on record: human, in vivo.
Turning to `CCC1(c2cccc(O)c2)CCCCN(C)C1` (centres undefined) [MEPTAZINOL], the CL renal was determined as 1.4 mL/min/kg.

`C[C@@H](O)[C@H]1C(=O)N2C(C(=O)[O-])=C(SC3Cn4cnc[n+]4C3)[C@H](C)[C@H]12` (some centres undefined) [BIAPENEM] yielded a CL renal of 1.23 mL/min/kg.

Consider `Cc1cc(=O)n(-c2ccccc2)n1C` [ANTIPYRINE], for which the CL renal is 0.02 mL/min/kg.

`NC(N)=Nc1nc(CSCCC(N)=NS(N)(=O)=O)cs1` [FAMOTIDINE] had a CL renal of 4.42 mL/min/kg.

For the molecule `Clc1ccc2nsnc2c1NC1=NCCN1` [TIZANIDINE], the CL renal worked out at 0.33 mL/min/kg.

Take `Nc1ncn([C@H]2C[C@H](O)[C@@H](CO)O2)c(=O)n1` [DECITABINE]: the CL renal turned out to be 1.3 mL/min/kg.

The molecule `CCOc1ccccc1OCCN[C@H](C)Cc1ccc(OC)c(S(N)(=O)=O)c1` [TAMSULOSIN] registered a CL renal of 0.08 mL/min/kg.

`O=c1[nH]cnc2c1ncn2[C@H]1CC[C@@H](CO)O1` [DIDANOSINE] yielded a CL renal of 6.8 mL/min/kg.

Regarding `CCCCc1nc(Cl)c(CO)n1Cc1ccc(-c2ccccc2-c2nn[nH]n2)cc1` [LOSARTAN], the CL renal amounted to 0.9 mL/min/kg.

The molecule `CC(CCc1ccccc1)NCC(O)c1ccc(O)c(C(N)=O)c1` (centres undefined) [LABETALOL] yielded a CL renal of 0.92 mL/min/kg.

For `NC[C@H]1O[C@H](O[C@H]2[C@H](O)[C@@H](O[C@H]3O[C@H](CO)[C@@H](O)[C@H](N)[C@H]3O)[C@H](N)C[C@@H]2N)[C@H](N)C[C@@H]1O` [TOBRAMYCIN], the CL renal amounted to 1.19 mL/min/kg.

In turn, `Cn1c(=O)c2[nH]cnc2n(C)c1=O.O` [THEOPHYLLINE] had a CL renal of 0.09 mL/min/kg.

Consider `CO[C@H]1/C=C/O[C@@]2(C)Oc3c(C)c(O)c4c(c3C2=O)C2=NC3(CCN(CC(C)C)CC3)NC2=C(NC(=O)/C(C)=C\C=C\[C@H](C)[C@H](O)[C@@H](C)[C@@H](O)[C@@H](C)[C@H](OC(C)=O)[C@@H]1C)C4=O` [RIFABUTIN], for which the CL renal was 0.4 mL/min/kg.

As for `COc1ccc([C@@H]2Sc3ccccc3N(CCN(C)C)C(=O)[C@@H]2OC(C)=O)cc1` [DILTIAZEM], the CL renal was determined as 9.23 mL/min/kg.

As for `CCOC(=O)C1=C(C)NC(C)=C(C(=O)OC)C1c1cccc([N+](=O)[O-])c1` (centres undefined) [NITRENDIPINE], the CL renal turned out to be 0.25 mL/min/kg.

In turn, `C[C@H]1O[C@@H](n2cc(F)c(=O)[nH]c2=O)[C@H](O)[C@@H]1O` [DOXIFLURIDINE] had a CL renal of 4.3 mL/min/kg.

`CCCCc1ncc(/C=C(\Cc2cccs2)C(=O)O)n1Cc1ccc(C(=O)O)cc1` [EPROSARTAN] showed a CL renal of 0.7 mL/min/kg.

In turn, `Nc1nc2c(ncn2CCC(CO)CO)c(=O)[nH]1` [PENCICLOVIR] came in with a CL renal of 6.7 mL/min/kg.

Molecule `CC(=O)O[C@@]12CO[C@@H]1C[C@H](O)[C@@]1(C)C(=O)[C@H](O)C3=C(C)[C@@H](OC(=O)[C@H](O)[C@@H](NC(=O)OC(C)(C)C)c4ccccc4)C[C@@](O)([C@@H](OC(=O)c4ccccc4)[C@H]21)C3(C)C.O.O.O` [DOCETAXEL] displayed a CL renal of 0.29 mL/min/kg.

In turn, `CCOC(=O)C1(c2ccccc2)CCC=CC1N(C)C` (centres undefined) [TILIDINE] registered a CL renal of 0.26 mL/min/kg.

With `COc1cccc(C2(O)CCCCC2CN(C)C)c1` (centres undefined) [TRAMADOL], the CL renal worked out at 0.98 mL/min/kg.

As for `Nc1nc(N)c2nc(-c3ccccc3)c(N)nc2n1`, the CL renal was 2.77 mL/min/kg.

As for `O=C(O)Cc1ccccc1Nc1c(Cl)cccc1Cl` [DICLOFENAC], the CL renal was found to be 0.04 mL/min/kg.

Consider `O=c1[nH]cc(F)c(=O)[nH]1` [FLUOROURACIL], for which the CL renal is 1.1 mL/min/kg.

Molecule `NC(=O)NO` [HYDROXYUREA] had a CL renal of 0.54 mL/min/kg.

The molecule `Cc1c(OCC(F)(F)F)ccnc1C[S+]([O-])c1nc2ccccc2[nH]1` (centres undefined) [LANSOPRAZOLE] showed a CL renal of 0.04 mL/min/kg.

Turning to `CC(=O)O[C@H]1C(=O)[C@@]2(C)[C@H]([C@H](OC(=O)c3ccccc3)[C@]3(O)C[C@H](OC(=O)[C@H](O)[C@@H](NC(=O)c4ccccc4)c4ccccc4)C(C)=C1C3(C)C)[C@]1(OC(C)=O)CO[C@@H]1C[C@@H]2O` [PACLITAXEL], the CL renal was determined as 0.64 mL/min/kg.

With `CCCCCNC(=N)N/N=C/c1c[nH]c2ccc(OC)cc12` [TEGASEROD], the CL renal was found to be 0.36 mL/min/kg.

`CC(C)(C)NCC(O)COc1ccc(NC(=O)NC2CCCCC2)cc1` (centres undefined) [TALINOLOL] displayed a CL renal of 2.6 mL/min/kg.
